Results reported in patent publication US9326513B2, “Fungicidal compositions” (Syngenta Participations AG, priority 2011, dated 2016).

How the values were obtained:
Type in all cases: cell-based
Septoria tritici = Septoria tritici (leaf blotch), PDB microtiter plate, visual after 72 hrs; conditions: Zymoseptoria tritici, single compound
[1] = tested on: Monographella nivalis (syn. Microdochium nivale, Fusarium nivale); test: Monographella nivalis (snow mould, foot rot of cereals), PDB microtiter plate, visual after 72 hrs
Botrytis cinerea = Botrytis cinerea (gray mould), PDB microtiter plate, visual after 72 hrs; conditions: alone; for inhibition at 2 ppm: rate 2 ppm
[2] = tested on: Mycosphaerella arachidis (y. Cercospora arachidicola); test: Mycosphaerella arachidis (brown leaf spot of groundnut), PDB microtiter plate, visual after 5-6 days; conditions: single compound
[3] = Botrytis cinerea, rate 0.25 ppm

Work on `OC(Cn1cncn1)(c1ccc(F)cc1)c1ccccc1F` (stereo not shown) [Flutriafol] yielded an inhibition at 0.5 ppm (Septoria tritici; 0.5 ppm) of 0%, an inhibition at 1 ppm (Septoria tritici; 1 ppm) of 0% and an inhibition at 0.0625 ppm ([1]; Monographella nivalis, applied alone, 0.0625 ppm) of 0%. The inhibition at 0.125 ppm ([1]; Monographella nivalis, applied alone, 0.125 ppm) was 0%, the inhibition at 0.25 ppm ([1]; Monographella nivalis, applied alone, 0.25 ppm) was 0% and the inhibition at 0.5 ppm ([1]; Monographella nivalis, applied alone, 0.5 ppm) was 0%. The inhibition at 0.03125 ppm ([1]; Monographella nivalis, applied alone, rate 0.03125 ppm) was 0%, the inhibition at 0.0625 ppm ([1]; Monographella nivalis, applied alone, rate 0.0625 ppm) was 0% and the inhibition at 0.125 ppm ([1]; Monographella nivalis, applied alone, rate 0.125 ppm) was 0%. The inhibition at 0.25 ppm ([1]; Monographella nivalis, applied alone, rate 0.25 ppm) was 0%, the inhibition at 0.5 ppm ([1]; Monographella nivalis, applied alone, rate 0.5 ppm) was 0% and the inhibition at 1 ppm ([1]; Monographella nivalis, applied alone, rate 1 ppm) was 0%. It also gave an inhibition at 2 ppm ([1]; Monographella nivalis, applied alone, rate 2 ppm) of 0%, an inhibition at 0.125 ppm (Botrytis cinerea; Botrytis cinerea, rate 0.125 ppm) of 0% and an inhibition at 0.25 ppm (Botrytis cinerea; [3]) of 0%. The inhibition at 0.5 ppm (Botrytis cinerea; Botrytis cinerea, rate 0.5 ppm) was 0%, the inhibition at 1 ppm (Botrytis cinerea; Botrytis cinerea, rate 1 ppm) was 0% and the inhibition at 2 ppm (Botrytis cinerea; Botrytis cinerea) was 0%.

`COC(=O)N(OC)c1ccccc1COc1ccn(-c2ccc(Cl)cc2)n1` [Pyraclostrobin] showed an inhibition at 0.0015625 ppm ([1]; Monographella nivalis, applied alone, rate 0.0015625 ppm) of 0%, an inhibition at 0.003125 ppm ([1]; Monographella nivalis, applied alone, rate 0.003125 ppm) of 0% and an inhibition at 0.00625 ppm ([1]; Monographella nivalis, single compound, rate 0.00625 ppm) of 0%. For the same compound, the inhibition at 0.0125 ppm ([1]; Monographella nivalis, single compound, rate 0.0125 ppm) was 50%, the inhibition at 0.025 ppm (Botrytis cinerea; Botrytis cinerea, rate 0.025 ppm) was 0% and the inhibition at 0.05 ppm (Botrytis cinerea; Botrytis cinerea, rate 0.05 ppm) was 0%. For the same compound, the inhibition at 0.1 ppm (Botrytis cinerea; Botrytis cinerea, rate 0.1 ppm) was 0%, the inhibition at 0.2 ppm (Botrytis cinerea; Botrytis cinerea, rate 0.2 ppm) was 20% and the inhibition at 0.25 ppm (Botrytis cinerea; [3]) was 50%. For the same compound, the inhibition at 2 ppm (Botrytis cinerea; Botrytis cinerea) was 70%.

`CCOC(=O)C1CC(=O)C(=C(O)C2CC2)C(=O)C1` (stereo not shown) [Trinexapacethyl] was tested, and the inhibition at 0.625 ppm ([1]; Monographella nivalis, applied alone, 0.625 ppm) was 0%, the inhibition at 1.25 ppm ([1]; Monographella nivalis, applied alone, 1.25 ppm) was 0% and the inhibition at 2.5 ppm ([1]; Monographella nivalis, applied alone, 2.5 ppm) was 0%. It also gave an inhibition at 5 ppm ([1]; Monographella nivalis, applied alone, 5 ppm) of 0%, an inhibition at 0.12625 ppm ([1]; Monographella nivalis, applied alone, rate 0.12625 ppm) of 0% and an inhibition at 0.3125 ppm ([1]; Monographella nivalis, applied alone, rate 0.3125 ppm) of 0%. The inhibition at 0.625 ppm ([1]; Monographella nivalis, applied alone, rate 0.625 ppm) was 0%, the inhibition at 1.25 ppm ([1]; Monographella nivalis, applied alone, rate 1.25 ppm) was 0% and the inhibition at 2.5 ppm ([1]; Monographella nivalis, applied alone, rate 2.5 ppm) was 0%. It also gave an inhibition at 1.25 ppm (Botrytis cinerea; Botrytis cinerea, rate 1.25 ppm) of 0%, an inhibition at 2.5 ppm (Botrytis cinerea; Botrytis cinerea, rate 2.5 ppm, read-out: Activity (%)) of 0% and an inhibition at 5 ppm (Botrytis cinerea; Botrytis cinerea, rate 5 ppm, read-out: Activity (%)) of 0%. For the same compound, the inhibition at 10 ppm (Botrytis cinerea; Botrytis cinerea, rate 10 ppm, read-out: Activity (%)) was 0% and the inhibition at 20 ppm (Botrytis cinerea; Botrytis cinerea, rate 20 ppm, read-out: Activity (%)) was 0%.

In the case of `[Cu+2].[OH-].[OH-]` [Copper hydroxide], the “Activity (%)” value ([1]; applied alone, rate 0.15625 ppm) is reported as 0%, the “Activity (%)” value ([1]; applied alone, rate 0.3125 ppm) is reported as 0% and the “Activity (%)” value ([1]; applied alone, rate 0.625 ppm) is reported as 0%. For the same compound, the “Activity (%)” value ([1]; applied alone, rate 1.25 ppm) was 0%, the “Activity (%)” value ([1]; applied alone, rate 2.5 ppm) was 0% and the “Activity (%)” value ([1]; applied alone, rate 5 ppm) was 0%. The “Activity (%)” value (Botrytis cinerea; rate 1.25 ppm) was 0%, the “Activity (%)” value (Botrytis cinerea; rate 2.5 ppm) was 0% and the “Activity (%)” value (Botrytis cinerea; rate 5 ppm) was 0%.

For `O=C(O)COc1ccc(Cl)cc1Cl` [2,4-D], the “Activity (%)” value ([1]; applied alone, 0.625 ppm) was 0%, the “Activity (%)” value ([1]; applied alone, 1.25 ppm) was 0% and the “Activity (%)” value ([1]; applied alone, 2.5 ppm) was 0%. The “Activity (%)” value ([1]; applied alone, 5 ppm) was 0%, the “Activity (%)” value ([1]; applied alone, 10 ppm) was 0% and the “Activity (%)” value ([1]; applied alone, rate 0.3125 ppm) was 0%. For the same compound, the “Activity (%)” value ([1]; applied alone, rate 0.625 ppm) was 0%, the “Activity (%)” value ([1]; applied alone, rate 1.25 ppm) was 0% and the “Activity (%)” value ([1]; applied alone, rate 2.5 ppm) was 0%. For the same compound, the “Activity (%)” value (Botrytis cinerea; rate 2.5 ppm) was 0%, the “Activity (%)” value (Botrytis cinerea; rate 5 ppm) was 0% and the “Activity (%)” value (Botrytis cinerea; rate 10 ppm) was 0%.

`Cc1cc(C2CC2)nc(Nc2ccccc2)n1` [Cyprodinil] gave an inhibition at 0.0015625 ppm ([1]; Monographella nivalis, applied alone, 0.0015625 ppm) of 0%, an inhibition at 0.003125 ppm ([1]; Monographella nivalis, applied alone, 0.003125 ppm) of 20% and an inhibition at 0.00078125 ppm ([2]; Mycosphaerella arachidis, 0.00078125 ppm) of 0%. The inhibition at 0.00125 ppm ([2]; Mycosphaerella arachidis, 0.00125 ppm) was 0%, the inhibition at 0.0015625 ppm ([2]; Mycosphaerella arachidis, 0.0015625 ppm) was 0% and the inhibition at 0.003125 ppm ([2]; Mycosphaerella arachidis, 0.003125 ppm) was 0%. The inhibition at 0.025 ppm ([2]; Mycosphaerella arachidis, 0.025 ppm) was 0%, the inhibition at 0.05 ppm ([2]; Mycosphaerella arachidis, 0.05 ppm) was 0% and the inhibition at 0.0625 ppm ([2]; Mycosphaerella arachidis, 0.0625 ppm, read-out: Activity (%)) was 0%. The inhibition at 0.1 ppm ([2]; Mycosphaerella arachidis, 0.1 ppm) was 0% and the inhibition at 0.2 ppm ([2]; Mycosphaerella arachidis, 0.2 ppm) was 0%.

In the case of `Cn1cc(C(=O)Nc2ccccc2C2CC2C2CC2)c(C(F)F)n1` (stereo not shown) [Sedaxan], the “Activity (%)” value ([2]; 0.00390625 ppm) is reported as 0%, the “Activity (%)” value ([2]; 0.015625 ppm) is reported as 0% and the “Activity (%)” value ([2]; 0.03125 ppm) is reported as 0%. For the same compound, the “Activity (%)” value ([2]; 0.0625 ppm) was 0% and the “Activity (%)” value ([2]; 0.125 ppm) was 0%.

Compound `O=C(NCCc1ncc(C(F)(F)F)cc1Cl)c1ccccc1C(F)(F)F` [Fluopyram] has an inhibition at 0.125 ppm (Septoria tritici; 0.125 ppm) of 0% and an inhibition at 0.25 ppm (Septoria tritici; 0.25 ppm, read-out: Activity (%)) of 50%.

With `CO/C=C(/C(=O)OC)c1ccccc1Oc1cc(Oc2ccccc2C#N)ncn1` [Azoxystrobin] the “Activity (%)” value ([1]; applied alone, 0.00625 ppm) was 50%, the “Activity (%)” value ([1]; applied alone, rate 0.0015625 ppm) was 0% and the “Activity (%)” value ([1]; applied alone, rate 0.003125 ppm) was 20%. For the same compound, the “Activity (%)” value ([1]; applied alone, rate 0.00625 ppm) was 70%, the “Activity (%)” value (Botrytis cinerea; rate 0.025 ppm) was 0% and the “Activity (%)” value (Botrytis cinerea; rate 0.05 ppm) was 0%. For the same compound, the “Activity (%)” value (Botrytis cinerea; rate 0.1 ppm) was 0%, the “Activity (%)” value (Botrytis cinerea; rate 0.125 ppm) was 0% and the “Activity (%)” value (Botrytis cinerea; rate 0.2 ppm) was 20%. For the same compound, the “Activity (%)” value (Botrytis cinerea; rate 0.25 ppm) was 20%.
